For one assay, the system named is TT Cell. Put plainly: Cell inhibitory activity test (CCK8). It is filed as cell-based. The following applies: Homo sapiens, TT, Table 3, 72 hours incubation. As for the experimental part: Cell Inhibitory Activity Test
1. preparing 90 μl of cell suspension in a 96-well plate with 4000 cells/well. Pre-incubating the culture plate in an incubator for 24 hours (37° C., 5% CO2).
2. adding 10 μl of test compounds of different concentrations to each well of cells, and each compound has multiple wells.
3. incubating the culture plate in the incubator for 72 hours.
4. adding 10 μl of CCK8 solution to each well (be careful not to generate bubbles in the well, otherwise they would affect the reading of the OD value).
5. incubating the culture plate in the incubator for 1-2 hours.
6. measuring the absorbance at 450 nm with a microplate reader.
7. according to the compound concentration and absorbance value, GraphpadPrism software was used to calculate the IC50 of each compound.

A further assay concerns the target T1, Ret wt (Homo sapiens, UniProt P07949).
T1 construct: purchased Invitrogen PV3082
Put plainly: HTRF kinase activity test, RET wild type. It is filed as biochemical. As to conditions: Table 3; read-out: RET Enzyme (wild type) IC50. Here is the method: This test combined peptide substrates and a single proprietary monoclonal antibody with HTRF technology, which was a highly sensitive and stable technology for detecting molecular interactions of proteins. The enzyme phosphorylates the substrate, then the Eu-labeled antibody binds to the phosphorylated substrate, and streptavidin-XL665 binds to all substrates. The TR-FRET signal was generated by the HTRF principle. […] Based on this, the inhibitory effect was evaluated.
The other compounds were diluted 3-fold gradiently with DMSO from the 10 mM stock solution to a total of 10 concentrations respectively.
Adding 4 volumes of distilled water to 1 volume of enzyme buffer 5×; 5 mM MgCl2; 1 mM DTT.
b) centrifuging the compound plate for 1 minute at 1000 g.
c) sealing the test board.
f) adding 4 μl of 1× kinase buffer to each well of the test plate, centrifuging the sample plate at 1000 g for 30 seconds, and placing it at room temperature for 10 minutes.
g) preparing a solution of 5× TK-substrate-biotin ([…]) in kinase buffer and 5×ATP (50 μM) in kinase buffer respectively.
h) starting the reaction by adding 2 μl STK-substrate-biotin and 2 μl ATP (prepared in the step g).
i) centrifuging the sample plate for 30 seconds at 1000 g. Sealing the test board and placing it at room temperature for 30 minutes.
) centrifuging at 1000 g for 30 seconds and placing it at room temperature for 1 hour.
The inhibition rate % was calculated as follows:
Inhibition rate %=[1−(fluorescence signal value of test compound−fluorescence signal value of positive control)/(average ratio of negative control−average ratio of positive control)]*100%
Ratio: generated from the measured fluorescence signal value
The average ratio of the positive control is the average ratio of the positive control (200 nM AT13148) in the sample plate;
The average ratio of negative controls is the average ratio of negative controls (0.1% DMSO) in the sample plate.
GraphPad 6.0 was used to fit the logarithm of the % inhibition rate and the compound concentration into a nonlinear regression (dose response−variable slope) to calculate the IC50 value.
On the technique in general: TR-FRET usually uses a lanthanide donor and a delayed reading to cut background.

Where a name gives a salt, the structure may show the parent alone.

Results on 23 compounds are retold here after patent publication US20210379056A1, “SUBSTITUTED PYRAZOLE FUSED RING DERIVATIVE, PREPARATION METHOD THEREFOR, AND APPLICATION THEREOF” (Applied Pharmaceutical Science, Inc., priority 2018, published 2021).

One may read the IC50 as the concentration that inhibits the measured activity by half.

T1 sequence (P07949 29-1114): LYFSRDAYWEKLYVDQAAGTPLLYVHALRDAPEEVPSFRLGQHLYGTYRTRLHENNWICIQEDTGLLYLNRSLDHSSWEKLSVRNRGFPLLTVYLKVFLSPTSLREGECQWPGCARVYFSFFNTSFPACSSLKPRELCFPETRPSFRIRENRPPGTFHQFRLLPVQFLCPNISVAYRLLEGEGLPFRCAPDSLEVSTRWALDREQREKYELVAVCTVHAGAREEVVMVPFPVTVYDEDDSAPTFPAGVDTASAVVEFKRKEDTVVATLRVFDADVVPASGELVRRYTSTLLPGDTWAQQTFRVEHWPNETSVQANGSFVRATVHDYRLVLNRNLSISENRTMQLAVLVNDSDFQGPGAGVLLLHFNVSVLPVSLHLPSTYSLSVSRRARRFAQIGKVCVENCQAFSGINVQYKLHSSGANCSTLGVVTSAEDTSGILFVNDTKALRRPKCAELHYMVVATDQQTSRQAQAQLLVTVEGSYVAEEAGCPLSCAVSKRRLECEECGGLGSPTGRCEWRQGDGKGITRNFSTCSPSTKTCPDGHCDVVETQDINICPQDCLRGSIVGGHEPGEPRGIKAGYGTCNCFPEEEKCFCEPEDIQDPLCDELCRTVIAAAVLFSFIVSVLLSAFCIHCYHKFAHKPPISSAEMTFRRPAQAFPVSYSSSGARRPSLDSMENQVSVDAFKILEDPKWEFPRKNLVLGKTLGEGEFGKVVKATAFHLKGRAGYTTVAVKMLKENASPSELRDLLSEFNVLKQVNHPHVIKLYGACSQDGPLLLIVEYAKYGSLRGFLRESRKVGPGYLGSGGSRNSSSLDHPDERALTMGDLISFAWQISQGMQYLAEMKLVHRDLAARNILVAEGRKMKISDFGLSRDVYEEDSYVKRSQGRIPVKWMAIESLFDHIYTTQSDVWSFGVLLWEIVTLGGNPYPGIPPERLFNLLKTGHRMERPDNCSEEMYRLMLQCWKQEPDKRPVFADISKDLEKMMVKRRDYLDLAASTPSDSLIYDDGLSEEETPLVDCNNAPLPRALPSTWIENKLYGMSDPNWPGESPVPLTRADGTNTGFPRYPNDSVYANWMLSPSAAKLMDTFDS

For `CCN(CC)C(=O)N1CCN(c2ccc(-c3cc(-c4cnn(C)c4)cn4nc(N)c(C#N)c34)cn2)CC1` [APS016, 4-(5-(2-amino-3-cyano-6-(1-methyl-1H-pyrazol-4-yl)pyrazolo[1,5-a]pyridin-4-yl)pyridine-2-yl)-N,N-diethylpiperazine-1-carboxamide], 31.1 nM corresponded to half-maximal inhibition in the assay with TT Cell (IC50). For `Cn1cc(-c2cc(-c3ccc(N4CCN(Cc5cncc(Cl)c5)CC4)nc3)c3c(C#N)c(N)nn3c2)cn1` [APS021], the IC50 in the assay on TT Cell came out at 120 nM. Same read-out and setting: with `COc1cccc(CN2CCN(c3ccc(-c4cc(-c5cnn(C)c5)cn5nc(N)c(C#N)c45)cn3)CC2)n1` [APS030, 2-amino-4-(6-(4-((6-methoxypyridin-2-yl)methyl)piperazin-1-yl)pyridin-3-yl)-6-(1-methyl-1H-pyrazol-4-yl)pyrazolo[1,5-a]pyridine-3-carbonitrile] the figure was 57.6 nM. Still for that read-out and setting: with `CN(C)c1ccc(CN2CCN(c3ccc(-c4cc(-c5cnn(C)c5)cn5nc(N)c(C#N)c45)cn3)CC2)cc1` [APS034, 2-amino-4-(6-(4-(4-(dimethylamino)benzyl)piperazin-1-yl)pyridin-3-yl)-6-(1-methyl-1H-pyrazole-4-yl)pyrazolo[1,5-a]pyridine-3-carbonitrile] the figure was 32.8 nM; with `CN(C)c1ccc(CN2CCN(c3ccc(-c4cc(-c5cnn(C)c5)cn5nc(N)c(C#N)c45)cn3)CC2)cn1` [APS041, 2-amino-4-(6-(4-((6-(dimethylamino)pyridin-3-yl)methyl)piperazin-1-yl)pyridin-3-yl)-6-(1-methyl-1H-pyrazol-4-yl)pyrazolo[1,5-a]pyridine-3-carbonitrile], 32.8 nM. Still for that read-out and setting: with `Cn1cc(-c2cc(-c3ccc(N4CCN(C(=O)c5c(F)cccc5F)CC4)nc3)c3c(C#N)c(N)nn3c2)cn1` [APS062, 2-amino-4-(6-(4-(2,6-difluorobenzoyl)piperazin-1-yl)pyridin-3-yl)-6-(1-methyl-1H-pyrazole-4-yl)pyrazolo[1,5-a]pyridine-3-carbonitrile] the figure was 34.1 nM; with `Cn1cc(-c2cc(-c3ccc(N4CCN(Cc5cnccn5)CC4)nc3)c3c(C#N)c(N)nn3c2)cn1` [APS064, 2-amino-6-(1-methyl-1H-pyrazol-4-yl)-4-(6-(4-(pyrazin-2-yl-methyl)piperazin-1-yl)pyridine-3-yl)pyrazolo[1,5-a]pyridine-3-carbonitrile], 150 nM. As to `Cc1nn2cc(-c3cnn(C)c3)cc(-c3ccc(N4CCN(C(=O)Cc5ccc(F)cn5)CC4)nc3)c2c1C#N` [APS071, 2-methyl-4-(6-(4-(2-(5-fluoropyridin-2-yl)acetyl)piperazin-1-yl)pyridin-3-yl)-6-(1-methyl-1H-pyrazol-4-yl)pyrazolo[1,5-a]pyridine-3-carbonitrile], on Ret wt, the concentration for half-maximal inhibition (IC50) was 64.6 nM. Same read-out and setting: with `Cc1nn2cc(-c3cnn(C)c3)cc(-c3ccc(N4CCC(Cc5ccccn5)CC4)nc3)c2c1C#N` [APS072, 2-methyl-6-(1-methyl-1H-pyrazol-4-yl)-4-(6-(4-(pyridin-2-yl-methyl)piperidin-1-yl)pyridine-3-yl)pyrazolo[1,5-a]pyridine-3-carbonitrile] the figure was 78.3 nM. For `C[C@@H]1CN(c2ccc(-c3cc(-c4cnn(C)c4)cn4nc(N)c(C#N)c34)cn2)CCN1Cc1ccccn1` [APS073, (R)-2-amino-6-(1-methyl-1H-pyrazol-4-yl)-4-(6-(3-methyl-4-(pyridin-2-yl-methyl)piperazine-1-yl)pyridin-3-yl)pyrazolo[1,5-a]pyridine-3-carbonitrile], 144 nM corresponded to half-maximal inhibition in the assay with TT Cell (IC50). On the same count and under the same terms, with `Cn1cc(-c2cc(-c3ccc(N4CCN(Cc5ccccc5)CC4)nc3)c3c(C#N)c(N)nn3c2)cn1` [APS074, 2-amino-4-(6-(4-benzylpiperazin-1-yl)pyridin-3-yl)-6-(1-methyl-1H-pyrazol-4-yl)pyrazolo[1,5-a]pyridine-3-carbonitrile] the figure was 25.2 nM; with `Cn1cc(-c2cc(-c3ccc(N4CCN(Cc5cccnc5)CC4)nc3)c3c(C#N)c(N)nn3c2)cn1` [APS075, 2-amino-6-(1-methyl-1H-pyrazol-4-yl)-4-(6-(4-(pyridin-3-yl-methyl)piperazin-1-yl)pyridine-3-yl)pyrazolo[1,5-a]pyridine-3-carbonitrile], 122 nM. Still for that read-out and setting: the value for `C[C@@H]1CN(Cc2ccccn2)CCN1c1ccc(-c2cc(-c3cnn(C)c3)cn3nc(N)c(C#N)c23)cn1` [APS076, (R)-2-amino-6-(1-methyl-1H-pyrazol-4-yl)-4-(6-(2-methyl-4-(pyridin-2-yl-methyl)piperazine-1-yl)pyridin-3-yl)pyrazolo[1,5-a]pyridine-3-carbonitrile] was 96.4 nM; that for `Cn1cc(-c2cc(-c3ccc(N4CCN(Cc5ccc(F)cc5)CC4)nc3)c3c(C#N)c(N)nn3c2)cn1` [APS077, 2-amino-4-(6-(4-(4-fluorobenzyl)piperazin-1-yl)pyridin-3-yl)-6-(1-methyl-1H-pyrazol-4-yl) pyrazolo[1,5-a]pyridine-3-carbonitrile] was 58.3 nM; that for `Cn1cc(-c2cc(-c3ccc(N4CCN(Cc5ccncc5)CC4)nc3)c3c(C#N)c(N)nn3c2)cn1` [APS078, 2-amino-6-(1-methyl-1H-pyrazol-4-yl)-4-(6-(4-(pyridin-4-yl-methyl)piperazin-1-yl)pyridine-3-yl)pyrazolo[1,5-a]pyridine-3-carbonitrile] was 57.1 nM.

Regarding `Cn1cc(-c2cc(-c3ccc(N4CCN(Cc5ccc(F)c(F)c5)CC4)nc3)c3c(C#N)c(N)nn3c2)cn1` [APS079, 2-amino-4-(6-(4-(3,4-difluorobenzyl)piperazin-1-yl)pyridin-3-yl)-6-(1-methyl-1H-pyrazole-4-yl)pyrazolo[1,5-a]pyridine-3-carbonitrile], the IC50 with TT Cell amounted to 120 nM. As to `COc1ccc(CN2CCN(c3ccc(-c4cc(-c5cnn(C)c5)cn5nc(O)c(C#N)c45)cn3)CC2)cn1` [APS083, 2-hydroxy-4-(6-(4-((6-methoxypyridin-3-yl)methyl)piperazin-1-yl)pyridin-3-yl)-6-(1-methyl-1H-pyrazol-4-yl)pyrazolo[1,5-a]pyridine-3-carbonitrile], at Ret wt, the IC50 came out at 212 nM. Regarding `COc1ccc(CN2CCN(c3ccc(-c4cc(-c5cnn(C)c5)cn5nc(F)c(C#N)c45)cn3)CC2)cn1` [APS084, 2-fluoro-4-(6-(4-((6-methoxypyridin-3-yl)methyl)piperazin-1-yl)pyridin-3-yl)-6-(1-methyl-1H-pyrazol-4-yl)pyrazolo[1,5-a]pyridine-3-carbonitrile], the midpoint of inhibition in the assay on TT Cell, the IC50, lay at 342 nM. For `COc1ccc(CN2CCN(c3ccc(-c4cc(-c5cnn(C)c5)cn5nc(NC(C)=O)c(C#N)c45)cn3)CC2)cn1` [APS085, N-(3-cyano-4-(6-(4-((6-methoxypyridin-3-yl)methyl)piperazin-1-yl)pyridin-3-yl)-6-(1-methyl-1H-pyrazol-4-yl)pyrazolo[1,5-a]pyridin-2-yl)acetamide], at Ret wt, the IC50 was 865 nM. Still for that read-out and setting: with `CNc1nn2cc(-c3cnn(C)c3)cc(-c3ccc(N4CCN(Cc5ccc(OC)nc5)CC4)nc3)c2c1C#N` [APS086, 2-methylamino-4-(6-(4-((6-methoxypyridin-3-yl)methyl)piperazin-1-yl)pyridin-3-yl)-6-(1-methyl-1H-pyrazol-4-yl)pyrazolo[1,5-a]pyridine-3-carbonitrile] the figure was 234 nM.

`COc1ccc(CN2C3CC2CN(c2cnc(-c4cc(OC[C@@H]5CNCCO5)cn5nc(F)c(C#N)c45)cn2)C3)cn1` [APS088, 2-fluoro-4-(5-(6-((6-methoxypyridin-3-yl)methyl)-3,6-diazabicyclo[3.1.1]heptan-3-yl)pyrazin-2-yl)-6-(((S)-morpholin-2-yl)methoxy)pyrazolo[1,5-a]pyridine-3-carbonitrile trifluoroacetate] returned an IC50 with TT Cell of 265 nM.

`COc1ccc(CN2C3CC2CN(c2ccc(-c4cc(OCC(C)(C)OC)cn5nc(N)c(C#N)c45)cn2)C3)cn1` [APS110, 2-amino-6-(2-methoxy-2-methylpropoxy)-4-(6-(6-((6-methoxypyridin-3-yl)methyl)-3,6-diazabicyclo[3.1.1]heptan-3-yl)pyridin-3-yl)pyrazolo[1,5-a]pyridine-3-carbonitrile] had an IC50 in the assay with TT Cell of 198 nM.

`CCOc1cc(-c2ccc(N3CC4CC(C3)N4Cc3cncc(Cl)c3)nc2)c2c(C#N)c(N)nn2c1` [APS112, 2-amino-4-(6-(6-((5-chloropyridin-3-yl)methyl)-3,6-diazabicyclo[3.1.1]heptan-3-yl)pyridine-3-yl)-6-ethoxypyrazolo[1,5-a]pyridine-3-carbonitrile]: the IC50 at Ret wt is 18.9 nM.
